# Assay results as given in paper PMC12736570, “The Absorption, Distribution, Excretion, and In Vitro Hepatic Microsomal Metabolism of the Novel CDK Compound XMD12 in Sprague-Dawley Rats” (Pharmaceutics, 2025).
# “And” between values parts separate entries of the source, which are not always exact repeats. Equal values may be shown once. Read-outs that look alike come from different tables or passages of the source.
# Key:
# [1] = cited from earlier work
# plasma protein = conditions: cited from earlier work
# [2] = Stability of XMD12 QC samples in rat plasma and liver homogenate; format: in vitro ADME
# Excerpt: Our analytical approach adheres to a comprehensive set of validation procedures in accordance with the recommendations outlined in the U.S. Food and Drug Administration’s Bioanalytical Method Validation Guidance (USFDA, 2018). These validation steps encompass a range of critical factors, including method specificity, linearity, sensitivity, carryover effect, accuracy, precision, matrix effect, recovery, dilution integrity, and stability. In assessing the method’s selectivity, we initiated the process by comparing chromatograms obtained from various sample sources. These sources included blank rat plasma, blank rat serum samples spiked with a mixture of standards, and rat plasma samples sourced from pharmacokinetic studies conducted on rats. This evaluation concurrently aided us in identifying and addressing any potential interferences that may occur within the acquisition window of XMD12 and the internal standard (IS). To evaluate linearity, a series of XMD12 concentrations was introduced into blank plasma, allowing us to establish a linear regression equation. The calibration curve (n = 5) was constructed by plotting the ratio of peak areas of XMD12 to IS (y-axis) against the nominal concentration ratio of XMD12 to IS (x-axis), followed by subsequent linear regression analysis. The lower limit of quantification (LLOQ) was defined as the lowest concentration point on the calibration curve that guarantees reliable quantification while maintaining accuracy within the range of 80–120% and precision below 20%. We conducted assessments of intra-day and inter-day precision and accuracy by performing six replicate tests on quality control (QC) samples at concentrations of 3, 120, and 1500 ng/mL over both a single day and a span of three days. Matrix effects and extraction recovery were evaluated through a post-extraction addition approach. Furthermore, we conducted a study on the stability of QC samples with high, medium, and low concentrations under four distinct conditions. […]
# [3] = Plasma pharmacokinetics after single intravenous administration and gastric gavage; format: in vivo, Sprague-Dawley rats; conditions: for AUC0-t / AUC0-∞ / CL / Cmax / MRT0-t / Tmax / V / t1/2: n = 5
# Description: Ten healthy SD rats were divided into two groups, each comprising five rats. Following a 12-h fasting period, the rats in the respective groups were administered XMD12 at dosages of 10 mg/kg via gastric gavage and 2 mg/kg via tail vein injection. The rats were anesthetized with isoflurane, and blood samples of approximately 150 uL were collected via the eye socket vein using capillaries. These samples were obtained prior to dosing (at 0 min) and at intervals of 0.083, 0.25, 0.5, 1, 1.5, 2.5, 4, 6, 8, 12 and 24 h post-dosing. The blood was then placed in centrifuge tubes pre-treated with heparin sodium, centrifuged at 3000 rpm for 10 min, and the resulting supernatant was stored in a refrigerator at −20 °C. The plasma samples underwent processing as per the outlined “Sample Preparation” methods and were analyzed using the specified procedures under “Instrument Conditions” to ascertain XMD12 concentration in the rat plasma at various time points. Utilizing DAS 3.2.8 (BioGuider Co., Shanghai, China), pharmacokinetic software facilitated data processing, computation of pertinent pharmacokinetic parameters, and the creation of blood concentration–time curves for the drug.
# [4] = Tissue distribution study after gastric gavage; format: in vivo, Sprague-Dawley rats; conditions: gastric gavage 20 mg/kg
# Description: Following a 12-h fasting period, 25 SD rats were randomly divided into 5 groups, each comprising 5 rats. These rats were administered the drug at a dosage of 20 mg/kg through gastric gavage. […] Blood was drawn from the abdominal aorta to ensure minimal residual blood within the rats, followed by euthanasia. A variety of tissues including the heart, liver, spleen, lungs, kidneys, stomach, small intestine, fat, muscles, and brain were then harvested. After weighing, all samples were stored in a freezer at −80 °C. The subsequent processing and analysis followed the described methods, aiming to determine the concentration of XMD12 in each tissue sample at different time intervals.
# [5] = Metabolic stability in rat liver microsome incubation system; format: in vitro ADME; conditions: rat liver microsomes
# Description: Rat liver microsomes (CYP450) were introduced into centrifuge tubes containing phosphate buffer. Different concentrations of the test compound were added to the experimental group, while an equal amount of buffer was added to the control group. Following a 10-min pre-incubation, NADPH was introduced to initiate the reaction, and the mixture was then incubated at 37 °C in a water bath for […]. The incubation system was composed of 10 μL of XMD12 substrate (0.5 μg/mL), 5 μL of rat liver microsomes (20 mg/mL), 20 μL of an NADPH generating system at a final concentration of 1 mM, and 465 μL of phosphate-buffered saline (pH 7.4). The NADPH generating system was prepared by mixing with 5 μL of a complementary Mix solution prior to use. This Mix solution contained MgCl2, EDTA, glucose-6-phosphate, glucose-6-phosphate dehydrogenase, and oxidized nicotinamide adenine dinucleotide phosphate (NADP^+). At intervals of 0, 5, 15, 30, 45, 60, 90, and 120 min, the reaction was halted by adding a cold acetonitrile solution containing the internal standard at a 1:2 ratio. This mixture underwent vigorous vortexing for 3 min before being centrifuged at 14,000 rpm for 10 min. The resulting supernatant was dried using nitrogen gas and subsequently reconstituted with 50% acetonitrile. After thorough vortexing for 2 min, the solution underwent a second centrifugation at 14,000 rpm for 10 min, and the supernatant was then injected into LC-MS/MS for analysis.
# [6] = Urine and feces excretion study after gastric gavage; format: in vivo, Sprague-Dawley rats; conditions: gastric gavage 20 mg/kg
# Description: Five male SD rats were housed individually in metabolic cages for adaptation for a day. During this period, urine and feces were collected as blank samples. The following day, the rats were orally administered XMD12 at a dose of 20 mg/kg by gastric gavage. Urine and feces samples were then collected at intervals of 0–4 h, 4–8 h, 8–12 h, 12–24 h, and 24–36 h post-administration. Measurements of volume and weight were recorded for each sample. Employing the outlined procedures, these samples underwent processing and analysis to determine the presence of XMD12 across different time spans within the collected urine and feces samples.
# [7] = p.o. 10 mg∙kg^−1 (gastric gavage), SD rats
smiles,measurement,setting,value
CN(C)C(=O)c1cc2cnc(Nc3ccc(N4CCNCC4)cn3)nc2n1C1CCCC1 [Ribociclib],oral bioavailability,"[1]; human, in vivo",65.8%
same,Tmax,"[1]; human, in vivo",1 to 5 h
same,elimination half-life,"[1]; human, in vivo",30 to 55 h
same,fecal excretion,"[1]; human, in vivo",69.1%
same,volume of distribution (Vd),"[1]; human, in vivo",1090 L
CCN1CCN(Cc2ccc(Nc3ncc(F)c(-c4cc(F)c5nc(C)n(C(C)C)c5c4)n3)nc2)CC1 [Abemaciclib],plasma protein binding,plasma protein; plasma,96.3%
same,elimination half-life,[1],17 to 38 h
same,oral bioavailability,"[1]; human, in vivo",45%
same,Tmax,"[1]; human, in vivo",under 8 h
same,fecal excretion,[1]; reported in humans,81%
COc1cc(F)ccc1-c1nc(Nc2cccc(N3CCOCC3)c2)ncc1F [XMD12],"stability, Accuracy","[2]; liver, nominal 30.0 ng∙mL^−1, 6 h at room temperature",100.93%
same,"stability, Accuracy","[2]; liver, nominal 30.0 ng∙mL^−1, 15 d, −80 °C",97.53%
same,"stability, Accuracy","[2]; liver, nominal 30.0 ng∙mL^−1, autosample at ambient temperature for 6 h",100.80%
same,"stability, Accuracy","[2]; liver, nominal 30.0 ng∙mL^−1, freeze–thaw (3 circles)",100.47%
same,"stability, Accuracy","[2]; liver, nominal 800.0 ng∙mL^−1, 6 h at room temperature",101.93%
same,"stability, Accuracy","[2]; liver, nominal 800.0 ng∙mL^−1, 15 d, −80 °C",99.40%
same,"stability, Accuracy","[2]; liver, nominal 800.0 ng∙mL^−1, freeze–thaw (3 circles)",99.78%
same,"stability, Accuracy","[2]; liver, nominal 1600.0 ng∙mL^−1, 6 h at room temperature",101.56%
same,"stability, Accuracy","[2]; liver, nominal 1600.0 ng∙mL^−1, 15 d, −80 °C",101.63%
same,"stability, Accuracy","[2]; liver, nominal 1600.0 ng∙mL^−1, autosample at ambient temperature for 6 h",100.94%
same,"stability, Accuracy","[2]; liver, nominal 1600.0 ng∙mL^−1, freeze–thaw (3 circles)",97.75%
same,"stability, Accuracy","[2]; plasma, nominal 5 ng∙mL^−1, 6 h at room temperature",105.58%
same,"stability, Accuracy","[2]; plasma, nominal 5 ng∙mL^−1, 15 d, −80 °C",94.20%
same,"stability, Accuracy","[2]; plasma, nominal 5 ng∙mL^−1, autosample at ambient temperature for 6 h",92.16%
same,"stability, Accuracy","[2]; plasma, nominal 5 ng∙mL^−1, freeze–thaw (3 circles)",97.10%
same,"stability, Accuracy","[2]; plasma, nominal 90 ng∙mL^−1, 6 h at room temperature",108.60%
same,"stability, Accuracy","[2]; plasma, nominal 90 ng∙mL^−1, 15 d, −80 °C",93.76%
same,"stability, Accuracy","[2]; plasma, nominal 90 ng∙mL^−1, autosample at ambient temperature for 6 h",92.44%
same,"stability, Accuracy","[2]; plasma, nominal 90 ng∙mL^−1, freeze–thaw (3 circles)",107.22%
same,"stability, Accuracy","[2]; plasma, nominal 800 ng∙mL^−1, 6 h at room temperature",110.80%
same,"stability, Accuracy","[2]; plasma, nominal 800 ng∙mL^−1, 15 d, −80 °C",102.22%
same,"stability, Accuracy","[2]; plasma, nominal 800 ng∙mL^−1, autosample at ambient temperature for 6 h",90.02%
same,"stability, Accuracy","[2]; plasma, nominal 800 ng∙mL^−1, freeze–thaw (3 circles)",106.80%
same,plasma concentration,"[3]; gastric gavage 10 mg/kg, within 8 h",approaching the LLOQ
same,plasma concentration,"[3]; i.v. 2 mg/kg, by 8 h",below the lower limit of quantification (LLOQ)
same,plasma concentration,"[3]; i.v. 2 mg/kg, within 30 min",59.88 ng/mL
same,AUC0-t,"[3]; i.v. 2 mg∙kg^−1, SD rats",357.21 ± 66.60 ng·h/mL
same,AUC0-∞,"[3]; i.v. 2 mg∙kg^−1, SD rats",360.03 ± 66.00 ng·h/mL
same,CL,"[3]; i.v. 2 mg∙kg^−1, SD rats",94.8 ± 15.8 mL/min/kg
same,Cmax,"[3]; i.v. 2 mg∙kg^−1, SD rats",827.00 ± 191.30 ng/mL
same,MRT0-t,"[3]; i.v. 2 mg∙kg^−1, SD rats",0.74 ± 0.08 h
same,Tmax,"[3]; i.v. 2 mg∙kg^−1, SD rats",0.083 h
same,V,"[3]; i.v. 2 mg∙kg^−1, SD rats",12.29 ± 3.98 L/kg
same,t1/2,"[3]; i.v. 2 mg∙kg^−1, SD rats",1.47 ± 0.29 h
same,peak concentration after gastric gavage relative to intravenous levels,[3]; p.o. 10 mg/kg vs i.v. 2 mg/kg,below 5%
same,AUC0-t,[3]; [7],117.78 ± 28.97 ng·h/mL
same,AUC0-∞,[3]; [7],120.06 ± 30.19 ng·h/mL
same,CL,[3]; [7],1444 ± 278.7 mL/min/kg
same,Cmax,[3]; [7],38.26 ± 10.90 ng/mL
same,MRT0-t,[3]; [7],2.475 ± 0.344 h
same,Tmax,[3]; [7],1.300 ± 0.758 h
same,V,[3]; [7],150.59 ± 34.37 L/kg
same,t1/2,[3]; [7],1.21 ± 0.16 h
same,F (bioavailability),"[3]; p.o. 10 mg∙kg^−1 vs i.v. 2 mg∙kg^−1, SD rats",6.67%
same,plasma half-life,"[3]; rat plasma, route not stated",1 h
same,time to peak drug concentration in gastrointestinal tissues (stomach and intestines),[4],0.5 to 1 h
same,brain concentration,[4]; 1 h,930.17 ± 762.76 ng/g
same,liver peak concentration,"[4]; 1 h, 20 mg/kg","24,768 ± 2436.62 ng/g and 24,768 ng/g"
same,liver concentration,[4]; 5 h,2241.9 ± 1193.07 ng/g
same,liver concentration as percent of the peak value,[4]; 5 h post-dosing,9%
same,concentration in all tissues as percent of peak levels,[4]; by 5 h,below 10%
same,parent compound remaining,"[5]; 5 min incubation, 37 °C, NADPH",68.8%
same,parent compound remaining,[5]; 45 min incubation,20%
same,metabolic rate,[5]; 120 min,87%
same,parent compound remaining,[5]; 120 min incubation,13%
same,intrinsic clearance (CLint),"[5]; CLint = k × (V/P), V 500 μL, P 0.1 mg",98.5 μL/min/mg protein
same,degradation rate constant (k),[5]; regression of ln remaining percentage vs incubation time,0.0197 min⁻¹
same,interval of rapid fecal elimination,[6],12 to 24 h
same,peak urinary elimination window,[6],12 to 24 h
same,cumulative fecal excretion (of the administered dose),[6]; 0–36 h,62.36% ± 19.97%
same,cumulative urinary excretion rate,"[6]; 0–36 h, 20 mg/kg",0.0068% and 0.0068% ± 0.0028%
CC(=O)c1c(C)c2cnc(Nc3ccc(N4CCNCC4)cn3)nc2n(C2CCCC2)c1=O [Palbociclib],plasma protein binding,plasma protein,85.3%
same,Tmax,[1],6 to 12 h
same,elimination half-life,[1],24 to 34 h
same,volume of distribution,[1],~2800 L
same,volume of distribution (Vd),[1]; reported in humans,~ 2800 L
